Assay results reported in US20210379589A1, “Microfluidic Chip For Analysis Of Cell Motility And Methods For Using Same” (The Johns Hopkins University, priority 2013, published 2021).

How the values were obtained:
[1] = system: Hs578t cells; assay: Microchannel migration device assay, Hs578t cells; assay type: cell-based; conditions: 10 μM LY294002, 400 μm-long Y-shaped migration channels; control 20±7%
Protocol: (§1) Cell seeding and live cell migration experiments: Cells were grown to continency, trypsinized, and resuspended in serum-free medium at 2×10^6 cells/ml. 50 μl of cell suspension was added to the cell inlet well. Cells were incubated in the device for 5-10 minutes at 37° C. to allow initial cell seeding at the base of “Y” channels. The cell suspension was then removed from the cell inlet port. The device was washed with DPBS before the addition of medium to the inlet ports of the device. In select experiments, PI3K activity was inhibited by the addition of 10 μM LY294002 in the medium through the entire course of migration. The migration chamber was moved to a temperature- and CO2-controlled stage-top live cell incubator (Okolab, Italy) mounted on the motorized stage of an inverted Nikon Eclipse Ti microscope (Nikon, Tokyo, Japan) with automated controls (NIS-Elements, Nikon). Migrating cells were imaged with a 10×-magnification phase contrast objective every 10 minutes for up to 16 hours. Analysis of Cell Migration: Video tiles were exported to Image1 for analysis. All cells that entered the channel were tracked while fully inside the channel and before reaching either end of the channel using the lmageJ MTrackJ plugin at 10 minute intervals. Cells were also dynamically traced with the imageJ polygon ROI capability at 30 minute intervals. Dividing cells were not tracked. […]

[2] = system: Bt549 cells; assay: Microchannel migration device assay, Bt549 cells; assay type: cell-based; conditions: 10 μM LY294002, 400 μm-long Y-shaped migration channels; control 32±8%
Protocol: as §1

[3] = system: MDA-MB-231 cells; assay: Microchannel migration device assay, MDA-MB-231 cells; assay type: cell-based, human
Protocol: Cell seeding and live cell migration experiments: Cells were grown to continency, trypsinized, and resuspended in serum-free medium at 2×10^6 cells/ml. 50 μl of cell suspension was added to the cell inlet well. Cells were incubated in the device for 5-10 minutes at 37° C. to allow initial cell seeding at the base of “Y” channels. The cell suspension was then removed from the cell inlet port. The device was washed with DPBS before the addition of medium to the inlet ports of the device. In select experiments, PI3K activity was inhibited by the addition of 10 μM LY294002 in the medium through the entire course of migration. The migration chamber was moved to a temperature- and CO2-controlled stage-top live cell incubator (Okolab, Italy) mounted on the motorized stage of an inverted Nikon Eclipse Ti microscope (Nikon, Tokyo, Japan) with automated controls (NIS-Elements, Nikon). Migrating cells were imaged with a 10×-magnification phase contrast objective every 10 minutes for up to 16 hours. Analysis of Cell Migration: Video tiles were exported to Image1 for analysis. All cells that entered the channel were tracked while fully inside the channel and before reaching either end of the channel using the lmageJ MTrackJ plugin at 10 minute intervals. Cells were also dynamically traced with the imageJ polygon ROI capability at 30 minute intervals. Dividing cells were not tracked. Cell position data were used to calculate cell speed over each 10 minute interval, and these speeds were averaged to get an overall average speed for each cell. Additionally, the chemotactic index, defined as the cell displacement divided by the total distance travelled by the cell, was calculated. Cell shape data were used to calculate cell circularity and fit elliptical angle using the Measure function in ImageJ Statistical significance was assessed with non-paired Student's t-test. Cells were further defined as migratory or non-migratory. Migratory cells were defined as those cells which reached the bifurcation in the Y-shaped microchannel; all other cells were defined as non-migratory. […]

## O=c1cc(N2CCOCC2)oc2c(-c3ccccc3)cccc12 [LY294002]
[1]
  percentage of migratory cells: 15±2%
[2]
  percentage of migratory cells: 19±1%
[3]; 10 μM LY294002, 200 μm-long microchannels, control 25%
  migratory cell population: 65%
[3]; 10 μM LY294002, 200 μm-long microchannels, control 66%
  ratio of contact guided cells: 93%
[3]; 10 μM LY294002, 400 μm-long Y-shaped migration channels, control 22±3%
  percentage of migratory cells: 34±8%
